Measured values: a melting point compilation (Tetko et al.; mined from patent text by program, amines drawn as free bases though some values may be those of a salt)

melting point | SMILES
105 °C | Cc1cc(C)c(=O)n(C(C(=O)NS(=O)(=O)c2ccc(C(C)C)cc2)c2ccc3c(c2)OCO3)n1 (stereo not drawn)
219 to 222 °C | CC(=O)Nc1ccc2sc3ccc(Br)cc3c(=O)c2c1
152 to 154 °C | O=C(Cc1csc(-c2cccc(O)c2)n1)NC1C(=O)N2C(C(=O)OC(c3ccccc3)c3ccccc3)=CCSC12 (stereo not drawn)
244 to 246 °C | Nc1nc2cccnc2c2c1nc(CO)n2CC1(O)CCC1
158 °C | CCOc1ccc2c(c1)n(C1CCCCC1)c(=O)n2Cc1ccc(NC(=O)N(CC)CC)cc1OC
165 to 166 °C | OCC12CC(c3ccccc31)c1ccccc12
105 to 107 °C | COc1cc(N)c(Cl)cc1C(=O)NCC1CCN(CCCCCOc2ccc(F)cc2)CC1
145 to 146 °C | CCCCNC(N)=Nc1nc(-c2cccc(CNC(C)=O)n2)cs1
167 to 168 °C | COC(=O)C(=CC=Cc1cc([N+](=O)[O-])ccc1Cl)C(=O)OC
224 to 225 °C | Cc1c(Cl)cc(C(C)(C)C)c(O)c1-c1nc2ccc(F)cc2c(=O)[nH]1
207 to 208 °C | COc1ccc(C2=NNC(=O)CC2)cc1CO
> 250 °C | O=C(O)c1cc(Br)cc(C(=O)C=Cc2ccccc2)c1O
193 to 195 °C | CCOC(=O)c1cnc2n(c1=O)c1ccccc1c1ncc(C(=O)OCC)c(=O)n12
218 °C | N#Cc1ccc(C(=O)c2ccc(O)c(CC(=O)O)c2)cc1
> 250 °C | NS(=O)(=O)c1ccc(NN=C2C(=O)Nc3cccc(Oc4ccccc4)c32)cc1
190 to 191 °C | Oc1ccc([C@@H]2C[C@H]2c2ccc(O)cc2)cc1 (relative stereo)
76 to 77 °C | CCCCCCCCCCCCS(=O)(=O)N1CCCSC1=C(Cl)[N+](=O)[O-]
133 to 135 °C | c1ccc2c(CCOc3cncc(N4CCNCC4)n3)c[nH]c2c1
90 to 93 °C | CNC(=O)[C@@H](N)C(C)(C)C
172 to 175 °C | CN(C(=O)c1cnn(C)c1C(=O)Nc1ccn2nc(N3CCOCC3)nc2c1)C1CC1
190 to 194 °C | Cc1ccccc1C(=O)Nc1ccc(C(=O)N2Cc3ccccc3-c3ccccc32)cc1
139 to 143 °C | NC(=O)c1cc(Oc2ccc(C(F)(F)F)cc2Cl)ccc1[N+](=O)[O-]
112 °C | CCOC(=O)C1Cc2cc(-c3ccccc3)ccc2O1 (stereo not drawn)
251 °C | O=C(c1ccc(I)cc1)c1ccc2[nH]c(=O)cc(-c3cccc(Cl)c3)c2c1
139 to 140 °C | O=C(c1ccccc1)N(CCCCn1ccnc1)C1=Nc2cccc3cccc1c23

melting point | SMILES
205 to 208 °C | CC(=O)Nc1cccc(-c2ccc3nc(-c4cccnc4N)n(-c4ccc(CNC(=O)c5ccccc5)cc4)c3n2)c1
101 to 102 °C | O=[N+]([O-])c1ccc(Oc2ccc(Cl)c(Cl)c2)nc1
113 °C | NC(=O)c1cc(Oc2cccc(CO)c2)ccn1
252 to 253 °C | COc1cc(C(=O)O)cc2ccc3ccccc3c(=O)c12
128 to 132 °C | COCC(COC)N(C)Cc1ccc(NC(=O)C2=Cc3cc(-c4ccc(C)cc4)ccc3OCC2)cc1
260 to 262 °C | Cn1c(=O)[nH]c2ccsc2c1=O
204 to 206 °C | C[C@H]1CCCN(C(=O)[C@@H]2Cc3cc(-c4ccccc4)ccc3N2c2ccc(=O)n(C)n2)C1
163 to 165 °C | CC(=NOc1ncc(F)c(N)n1)c1ccccc1
111 to 117 °C | CCOC(=O)Cc1coc2c(OC)ccc(C(=O)Cc3ccncc3)c12
262 to 265 °C | CC(C)(Cn1c(CO)nc2c(N)nc3ccccc3c21)NS(C)(=O)=O
152 to 154 °C | CSC1=Nc2ccc(Cl)cc2Nc2cscc21
125 to 126 °C | COC(=O)c1cccc(-c2nc(COc3ccc(CCl)cc3OC)c(C)o2)c1
114 °C | Cc1cc(C)c(C(=O)Nc2ccccc2S(C)=O)c(I)c1 (stereo not drawn)
217 to 223 °C | CC(/C=C/c1c(C)sc(C)c1C)=C(F)\C=C\C(C)=C\C(=O)O
110 to 115 °C | O=S(=O)(c1ccccc1)c1ccc2cnc(Nc3ccc(N4CCOCC4)cc3)nn12
166 to 168 °C | CNc1nc2ccc(Cl)cc2c2nc(-c3ccco3)nn12
182 to 184 °C | CN1C(=O)CC[C@]2(C)c3ccc(-c4cccc5cnccc45)cc3CC[C@@H]12
60 to 63 °C | CCCCCNS(N)(=O)=O
132 to 133 °C | O=C1C(Cl)=C(c2ccccc2)C(=O)N1c1ccccc1Cl
206 to 208 °C | CCOC(=O)C1CCc2c(oc3ccc(C(N)=O)cc23)C1 (stereo not drawn)
82 to 84 °C | C=C(C)C(=O)OCc1ccc(O)c(C=O)c1
128 to 130 °C | CN1CCC(OC(=O)C(C)(c2ccc(O)cc2)C2CCCC2)CC1 (stereo not drawn)
198 to 199 °C | CN(C)C(=O)Sc1ccc(C(=O)c2ccc([N+](=O)[O-])cc2)cc1
208 °C | N#Cc1c(N)nc2ccccc2c1NCc1cccs1
155 to 156 °C | O=S(=O)(NCCCOc1cccc2nccn12)c1ccccc1

melting point | SMILES
255 to 257 °C | N#Cc1c(C(F)(F)F)oc2cc(O)ccc2c1=O
304 to 307 °C | CCCn1c(=O)c2[nH]c(-c3cc(C)n(CC(=O)Nc4cccc(Cl)c4)n3)nc2n(CCC)c1=O
72 to 77 °C | Cc1nn(-c2ccc([N+](=O)[O-])cc2F)c(=O)n1C(F)F
207 to 209 °C | CCCc1nc(-c2cccnc2)cnc1Cl
140 to 153 °C | CC(C)(O)CONC(=O)c1ccc(F)c(F)c1Nc1ccc(I)cc1Cl
140 to 141 °C | CCOP(=O)(CCOCn1cnc2c(OC)ncnc21)OCC
152 to 153 °C | CC(=O)NCC1CN(c2ccc(N3CCC(=CC#N)C(C)C3)c(F)c2)C(=O)O1 (stereo not drawn)
69 to 71 °C | BrCc1noc2cc3c(cc12)CCC3
> 240 °C | Nc1ccc(C(=O)Nc2ccc(-n3nc(C(F)(F)F)cc3C(F)(F)F)cc2)cc1
33 to 34.5 °C | CCCCCCCCSCCCC(=O)O
171 to 174 °C | COc1ccc(C(=O)N[C@@H](Cc2ccc(OC(=O)c3ccc(OC)cc3)cc2)C(=O)O)cc1
145 to 150 °C | COC(=O)CN1CCCN(c2ccc(-c3ccc(C#N)cc3)cc2)C1=O
238 to 240 °C | O=c1[nH]cnc2cc(Br)sc12
100 °C | O=C(O)CC(CC(=O)O)C(F)(F)F
137 to 138 °C | CCCCN1CC(O)N(c2cc(OC)c(Cl)cc2F)C1=S (stereo not drawn)
118 to 120 °C | CCOC(=O)COc1cc(C(C)C)c(NC(=O)CN2CCN(CCSc3nc4ccccc4o3)CC2)c(C(C)C)c1
118 to 120 °C | CN1C(=O)C(c2cccc(O)c2)(c2cnn(CC(F)(F)F)c2)N=C1N (stereo not drawn)
142 to 143 °C | COC(=O)ON=C1C(=O)c2ccccc2-c2ccccc21
105 °C | N#CN=C(N)NCCCCNC(=O)C1(NC(=O)CCCC(=O)O)Cc2ccccc2C1
132 °C | Cc1cc(C)n(C(=N)NC(=S)Nc2cccnc2)n1
70 °C | O=c1c2c(cnn1Cc1ccccc1)C(Cc1ccccc1)NCCO2 (stereo not drawn)
195 to 197 °C | CCN1C(=O)CCCc2cc(Nc3ncc(Cl)c(Nc4ccccc4S(=O)(=O)C(C)C)n3)c(OC)cc21
191 to 192 °C | COc1nc(N)c2ncn(C3OC(CO)C(O)C3O)c2n1 (stereo not drawn)
222 to 225 °C | O=C1Cc2cc(Cl)cc(C(=O)c3ccc(F)cc3)c2N1
225 to 227 °C | C#Cc1cccc(Nc2ncnc3cnc(F)cc23)c1

melting point | SMILES
169 to 172 °C | CCOC(=O)c1cc(=O)c2cc(O)c(=O)ccc2[nH]1
219 to 221 °C | CC(C)c1cc(C(=O)Nc2ccc(C(=O)O)cc2)sc1C(C)C
170 to 175 °C | CC[C@H](C)[C@H](NC(=O)O[C@@H](CC(C)C)C(=O)O)C(N)=O
227 to 237 °C | COc1ccc(NC(=O)c2c(Cl)cccc2Cl)c2nccc(N3CCN(C)C3=O)c12
165 to 167 °C | C=C1C(=O)c2ccccc2OC1(c1ccccc1)c1ccccc1
209 to 213 °C | Cc1c(F)cc(O)c2c(=O)c(C(=O)O)cn([C@@H]3C[C@@H]3F)c12
213 to 215 °C | Cc1cccc(Nc2nc(N)ncc2S(N)(=O)=O)c1
79 °C | CCOC(=O)NOC(=O)c1ccc(Cl)cc1
114 °C | CC(C)(C)NCCOc1ccccc1CCCc1cccc2[nH]ccc12
123 to 125 °C | NC(=O)C(CCCCCCCCNC(=O)c1ccccc1O)CC(=O)O (stereo not drawn)
84 to 85 °C | CC(N)(C(N)=O)C(F)(F)F (stereo not drawn)
239 to 241 °C | O=c1cc2c(nn1-c1ccc(Cl)cc1)-c1cc(Cl)ccc1S(=O)CC2 (stereo not drawn)
154 to 156 °C | O=[N+]([O-])c1ccc2[nH]cc(Cc3cccnc3)c2c1
78 °C | O=C1CCc2ccc(C(F)(F)F)cc2CC1
195 to 197 °C | CCOC(=O)c1cn2c3c(cc(C)cc3c1=O)OCC2C (stereo not drawn)
214 to 216 °C | Cn1ccnc1Sc1ccc(Nc2c(C#N)cnc3cc(/C=C/CCN4CCC(N5CCCC5)CC4)ccc23)cc1Cl
157 to 160 °C | CCN(CC)CC1CN(Cc2cc(OC)c(OC)c(OC)c2)CCN1C(=O)C1=Cc2cc(OC)c(OC)cc2CCC1 (stereo not drawn)
203 to 204 °C | CC(C(=O)O)c1ccc2c(c1)Cc1cccnc1S2 (stereo not drawn)
131 to 134 °C | CCOC(=O)c1cn(CCN(CC)CC)c2oc(CN3CCOCC3)cc2c1=O
181 to 187 °C | Nc1c(NCc2ccccc2F)ccnc1Cl
122 to 124 °C | CC(c1oc2ccccc2c(=O)c1-c1cccc(F)c1)n1nc(-c2cc(O)cc(Cl)c2)c2c(N)ncnc21 (stereo not drawn)
138 to 140 °C | O=C(Nc1ccccc1Oc1ccc(Cl)cc1)C1CCNCC1
107 to 109 °C | C=CC[C@H]1CCC[C@H](N2C(=O)c3ccccc3C2=O)C(=O)N1CC(=O)OC
194 to 195 °C | COc1ccc(-c2ccc3ccccc3c2C(=O)N(C)C)cc1

SMILES | melting point
Oc1cccc2c1CC1CNCC2C1 (stereo not drawn) | 106 to 108 °C
CCCC(CCC)C(=O)OC1N=C(c2ccccc2Cl)c2cc(Cl)ccc2NC1=O (stereo not drawn) | 191 to 193 °C
O=C(OC1CCCCC1)c1ncn2c1[C@@H]1CCN1C(=O)c1c(Br)cccc1-2 | 203 to 204 °C
CN1CC2=C(n3cnc(I)c3C1)S(=O)C=C2 (stereo not drawn) | 175 to 177 °C
